Measured values taken from ChEMBL document CHEMBL2163300, “Mitogen-activated protein kinase-activated protein kinase 2 (MAPKAP-K2) as an antiinflammatory target: discovery and in vivo activity of selective pyrazolo[1,5-a]pyrimidine inhibitors using a focused library and structure-based optimization approach” (J Med Chem, 2012).
≈ marks a conversion by molar mass, not a printed value. Each block holds one compound with its values, some of them ahead of it.

What was measured:
[1] = molecular target: T1, Rho-associated protein kinase 2 (Homo sapiens, UniProt O75116); assay: Inhibition of ROK2
[2] = Solubility of the compound at pH 7.4; format: physicochemical; conditions: buffer
[3] = Intrinsic clearance in human liver microsomes; format: ADME, Microsome; conditions: read-out: CLH
[4] = molecular target: Glycogen synthase kinase-3 beta (Homo sapiens, UniProt P49841); assay: Inhibition of GSK3beta
[5] = molecular target: Tyrosine-protein kinase Lck (Homo sapiens, UniProt P06239); assay: Inhibition of LCK
[6] = Apparent permeability across apical to basolateral side in human Caco2 cells; format: ADME, cell-based; conditions: Caco-2
[7] = molecular target: MAP kinase-activated protein kinase 5 (Homo sapiens, UniProt Q8IW41); assay: Inhibition of PRAK
[8] = molecular target: T2, MAP kinase-activated protein kinase 2 (Homo sapiens, UniProt P49137); assay: Inhibition of MAPKAP-K2 using KKLNRTLSVA as substrate and [33P]-gamma-ATP after 30 mins by liquid scintillation counter
[9] = Inhibition of PHK
[10] = molecular target: T2, MAP kinase-activated protein kinase 2; assay: Competitive inhibition of MAPKAP-K2 using KKLNRTLSVA as substrate and [33P]-gamma-ATP by Lineweaver-Burke plot analysis
[11] = molecular target: Cyclin-dependent kinase 2 (Homo sapiens, UniProt P24941)
Description: Inhibition of CDK2 after 60 mins using [33P]-gamma-ATP by liquid scintillation counter

[12] = molecular target: T3, Mitogen-activated protein kinase 14 (Homo sapiens, UniProt Q16539); assay: Inhibition of P38alpha
[13] = molecular target: Mitogen-activated protein kinase 9 (Homo sapiens, UniProt P45984); assay: Inhibition of JNK2
[14] = Intrinsic clearance in mouse liver microsomes; format: ADME, Microsome; conditions: read-out: CLH
[15] = molecular target: MAP kinase-activated protein kinase 5 (Homo sapiens) (UniProt Q8IW41); assay: Inhibition of human PRAK at 10 uM
Serum [16] = assay: Drug uptake in po dosed C57BL/6 mouse serum; format: ADME, organism-based; conditions: in vivo
[17] = molecular target: Mitogen-activated protein kinase 1 (Homo sapiens) (UniProt P28482); assay: Inhibition of human ERK2 at 10 uM
Serum [18] = assay: Drug level in C57BL/6 mouse serum at 100 mg/kg, po; format: ADME, organism-based; set-up: dose 100 mg/kg, route oral; conditions: in vivo, read-out: Drug uptake
[19] = molecular target: Ribosomal protein S6 kinase beta-1 (Homo sapiens) (UniProt P23443); assay: Inhibition of human p70S6K at 10 uM
Serum [20] = assay: Drug level in C57BL/6 mouse serum at 10 mg/kg, po; format: ADME, organism-based; set-up: dose 10 mg/kg, route oral; conditions: in vivo, read-out: Drug uptake
Mus musculus [21] = assay: Antiinflammatory activity in C57BL/6 mouse assessed as LPS-induced serum TNFalpha level at 100 mg/kg, po administered 30 mins prior to LPS challenge measured 60 mins post LPS challenge by ELISA relative to vehicle-treated control; format: functional
Serum [22] = assay: Drug level in C57BL/6 mouse serum at 60 mg/kg, po; format: ADME, organism-based; set-up: dose 60 mg/kg, route oral; conditions: in vivo, read-out: Drug uptake
[23] = Plasma protein binding in mouse; format: ADME, cell-free; conditions: read-out: PPB (converted)
[24] = molecular target: T1, Rho-associated protein kinase 2; assay: Inhibition of human ROCK2 at 10 uM
[25] = molecular target: Mitogen-activated protein kinase 13 (Homo sapiens) (UniProt O15264); assay: Inhibition of human p38delta at 10 uM
[26] = molecular target: T3, Mitogen-activated protein kinase 14; assay: Inhibition of human p38alpha at 10 uM
[27] = molecular target: Receptor-type tyrosine-protein kinase FLT3 (Homo sapiens) (UniProt P36888); conditions: 10 uM
Description: Inhibition of human FLT3 at 10 uM

[28] = molecular target: RAC-alpha serine/threonine-protein kinase (Homo sapiens) (UniProt P31749); assay: Inhibition of human PKBalpha at 10 uM
[29] = Oral bioavailability in mouse at 1 mg/kg; format: ADME, organism-based; conditions: in vivo
[30] = molecular target: MAP kinase-activated protein kinase 2 (Mus musculus, UniProt P49138); assay: Inhibition of MAPKAP-K2 in mouse whole blood assessed as inhibition of LPS-induced TNFalpha production by ELISA
[31] = Total clearance in mouse at 1 mg/kg, iv; format: ADME, organism-based; set-up: dose 1 mg/kg, route intravenous; conditions: in vivo
[32] = molecular target: Inhibitor of nuclear factor kappa-B kinase subunit beta (Homo sapiens) (UniProt O14920); assay: Inhibition of human IKKbeta at 10 uM
Mus musculus [33] = assay: Antiinflammatory activity in po dosed C57BL/6 mouse assessed as decrease in LPS-induced serum TNFalpha level administered 30 mins prior to LPS challenge measured 60 mins post LPS challenge by ELISA; format: functional, organism-based
[34] = molecular target: Tyrosine-protein kinase Yes (Homo sapiens) (UniProt P07947); conditions: 10 uM
Description: Inhibition of human YES at 10 uM

[35] = Half life in mouse at 1 mg/kg, iv; format: ADME, organism-based; set-up: dose 1 mg/kg, route intravenous; conditions: in vivo
[36] = AUC (0 to 24 hrs) in mouse at 1 mg/kg, po; format: ADME, organism-based; set-up: time < 24 hr, dose 1 mg/kg, route oral; conditions: plasma
[37] = molecular target: Protein kinase C alpha type (Homo sapiens) (UniProt P17252); assay: Inhibition of human PKCalpha at 10 uM
[38] = molecular target: Serine/threonine-protein kinase Chk1 (Homo sapiens) (UniProt O14757); assay: Inhibition of human CHK1 at 10 uM
Rattus norvegicus [39] = species on record: Rattus norvegicus; assay: Inhibition of rat CAMK2 at 10 uM
[40] = molecular target: Dual specificity mitogen-activated protein kinase kinase 4 (Mus musculus) (UniProt P47809); assay: Inhibition of mouse MKK4 at 10 uM
[41] = molecular target: 3-phosphoinositide-dependent protein kinase 1 (Homo sapiens) (UniProt O15530); assay: Inhibition of human PDK1 at 10 uM
Homo sapiens = species on record: Homo sapiens; assay: Inhibition of human PKA at 10 uM
[42] = molecular target: Cyclin-dependent kinase 1/cyclin B1 (Homo sapiens) (UniProt P06493+P14635); assay: Inhibition of human Cdk1/cyclin B at 10 uM; format: protein-complex assay
[43] = molecular target: Mitogen-activated protein kinase 8 (Homo sapiens) (UniProt P45983); assay: Inhibition of human JNK1alpha1 at 10 uM
[44] = molecular target: Tyrosine-protein kinase Fes/Fps (Homo sapiens) (UniProt P07332); conditions: 10 uM
Description: Inhibition of human FES at 10 uM

[45] = molecular target: Protein kinase C gamma type (Homo sapiens) (UniProt P05129); assay: Inhibition of human PKCgamma at 10 uM
THP-1 = assay: Cytotoxicity against human THP1 cells assessed as cell viability by MTS assay; format: cell-based
[46] = molecular target: Dual specificity mitogen-activated protein kinase kinase 1 (Homo sapiens) (UniProt Q02750); assay: Inhibition of human MEK1 at 10 uM
Rattus norvegicus [47] = species on record: Rattus norvegicus; assay: Inhibition of rat AMPK at 10 uM
[48] = molecular target: Dual specificity mitogen-activated protein kinase kinase 6 (Homo sapiens) (UniProt P52564); assay: Inhibition of human MKK6 at 10 uM
Serum [49] = assay: Drug level in C57BL/6 mouse serum at 30 mg/kg, po; format: ADME, organism-based; set-up: dose 30 mg/kg, route oral; conditions: in vivo, read-out: Drug uptake
[50] = molecular target: Ribosomal protein S6 kinase alpha-3 (Homo sapiens) (UniProt P51812); assay: Inhibition of human RSK2 at 10 uM
[51] = molecular target: Dual specificity mitogen-activated protein kinase kinase 7 (Homo sapiens) (UniProt O14733); assay: Inhibition of human MKK7beta at 10 uM
[52] = molecular target: Mitogen-activated protein kinase 12 (Homo sapiens) (UniProt P53778); assay: Inhibition of human p38gamma at 10 uM
Chain of Mitogen-activated protein kinase 12 (Homo sapiens) (P53778 whole entry): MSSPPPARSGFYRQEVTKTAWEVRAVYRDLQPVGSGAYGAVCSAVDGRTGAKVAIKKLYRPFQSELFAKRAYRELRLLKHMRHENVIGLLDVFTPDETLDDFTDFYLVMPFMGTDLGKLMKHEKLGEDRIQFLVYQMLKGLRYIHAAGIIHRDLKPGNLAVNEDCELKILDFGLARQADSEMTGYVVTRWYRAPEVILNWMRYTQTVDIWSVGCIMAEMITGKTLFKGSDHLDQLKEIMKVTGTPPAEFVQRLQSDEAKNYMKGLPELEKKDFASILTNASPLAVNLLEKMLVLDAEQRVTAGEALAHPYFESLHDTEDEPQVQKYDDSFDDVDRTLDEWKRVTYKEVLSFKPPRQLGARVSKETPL

T3 sequence (Q16539 whole entry): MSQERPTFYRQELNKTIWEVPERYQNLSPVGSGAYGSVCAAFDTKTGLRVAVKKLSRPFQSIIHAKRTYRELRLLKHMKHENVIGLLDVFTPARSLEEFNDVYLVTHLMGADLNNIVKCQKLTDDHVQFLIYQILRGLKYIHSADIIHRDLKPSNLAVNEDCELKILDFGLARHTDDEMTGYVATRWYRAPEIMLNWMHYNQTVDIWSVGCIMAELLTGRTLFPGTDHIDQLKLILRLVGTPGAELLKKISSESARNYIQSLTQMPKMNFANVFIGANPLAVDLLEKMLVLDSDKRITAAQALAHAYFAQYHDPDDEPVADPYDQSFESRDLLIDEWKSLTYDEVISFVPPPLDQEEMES
T2 sequence (P49137 whole entry): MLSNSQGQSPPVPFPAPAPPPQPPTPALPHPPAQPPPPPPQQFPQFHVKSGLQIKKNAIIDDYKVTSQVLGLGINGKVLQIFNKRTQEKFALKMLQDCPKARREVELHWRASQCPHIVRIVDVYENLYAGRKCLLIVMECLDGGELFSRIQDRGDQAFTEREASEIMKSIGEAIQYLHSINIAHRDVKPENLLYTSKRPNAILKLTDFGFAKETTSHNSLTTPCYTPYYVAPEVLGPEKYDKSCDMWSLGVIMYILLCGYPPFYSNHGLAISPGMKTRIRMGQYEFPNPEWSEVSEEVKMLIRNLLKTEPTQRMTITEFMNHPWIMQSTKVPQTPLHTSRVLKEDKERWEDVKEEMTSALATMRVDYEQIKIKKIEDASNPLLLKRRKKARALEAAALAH
Chain of Glycogen synthase kinase-3 beta (P49841 whole entry): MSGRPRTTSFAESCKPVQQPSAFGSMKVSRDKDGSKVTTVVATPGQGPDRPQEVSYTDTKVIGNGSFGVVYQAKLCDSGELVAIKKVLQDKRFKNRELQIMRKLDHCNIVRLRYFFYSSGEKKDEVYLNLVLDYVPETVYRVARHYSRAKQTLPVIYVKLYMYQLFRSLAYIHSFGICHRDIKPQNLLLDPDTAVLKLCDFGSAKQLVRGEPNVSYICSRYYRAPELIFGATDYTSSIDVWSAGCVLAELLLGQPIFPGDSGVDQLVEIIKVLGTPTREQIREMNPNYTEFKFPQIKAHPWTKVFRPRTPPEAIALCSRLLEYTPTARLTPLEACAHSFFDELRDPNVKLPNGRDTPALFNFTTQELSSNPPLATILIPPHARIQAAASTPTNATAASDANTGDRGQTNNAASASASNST
Chain of Mitogen-activated protein kinase 1 (Homo sapiens) (P28482 whole entry): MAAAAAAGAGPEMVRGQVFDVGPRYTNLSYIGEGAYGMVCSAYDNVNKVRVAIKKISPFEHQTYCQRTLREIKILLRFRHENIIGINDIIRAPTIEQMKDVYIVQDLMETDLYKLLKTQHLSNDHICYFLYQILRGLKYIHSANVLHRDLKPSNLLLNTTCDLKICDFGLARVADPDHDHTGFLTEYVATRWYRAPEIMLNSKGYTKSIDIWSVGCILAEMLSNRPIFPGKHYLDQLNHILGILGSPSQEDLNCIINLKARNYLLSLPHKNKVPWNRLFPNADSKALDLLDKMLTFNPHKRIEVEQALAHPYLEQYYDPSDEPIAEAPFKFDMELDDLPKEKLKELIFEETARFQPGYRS
Chain of 3-phosphoinositide-dependent protein kinase 1 (Homo sapiens) (O15530 whole entry): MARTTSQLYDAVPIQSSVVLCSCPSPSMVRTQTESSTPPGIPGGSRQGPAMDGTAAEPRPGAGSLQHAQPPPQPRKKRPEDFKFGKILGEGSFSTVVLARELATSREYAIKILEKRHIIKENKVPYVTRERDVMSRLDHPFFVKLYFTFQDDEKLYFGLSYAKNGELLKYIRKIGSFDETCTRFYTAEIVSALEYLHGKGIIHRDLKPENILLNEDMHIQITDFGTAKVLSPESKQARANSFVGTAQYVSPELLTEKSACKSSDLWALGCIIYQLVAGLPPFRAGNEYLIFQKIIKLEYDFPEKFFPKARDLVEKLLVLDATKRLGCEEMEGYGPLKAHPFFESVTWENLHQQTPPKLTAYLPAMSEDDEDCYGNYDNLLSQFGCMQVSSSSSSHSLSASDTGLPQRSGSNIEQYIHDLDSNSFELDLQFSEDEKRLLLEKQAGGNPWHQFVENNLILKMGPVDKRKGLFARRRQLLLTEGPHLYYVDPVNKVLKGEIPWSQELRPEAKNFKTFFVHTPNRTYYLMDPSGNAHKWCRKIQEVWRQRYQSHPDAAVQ
Chain of Dual specificity mitogen-activated protein kinase kinase 4 (Mus musculus) (P47809 whole entry): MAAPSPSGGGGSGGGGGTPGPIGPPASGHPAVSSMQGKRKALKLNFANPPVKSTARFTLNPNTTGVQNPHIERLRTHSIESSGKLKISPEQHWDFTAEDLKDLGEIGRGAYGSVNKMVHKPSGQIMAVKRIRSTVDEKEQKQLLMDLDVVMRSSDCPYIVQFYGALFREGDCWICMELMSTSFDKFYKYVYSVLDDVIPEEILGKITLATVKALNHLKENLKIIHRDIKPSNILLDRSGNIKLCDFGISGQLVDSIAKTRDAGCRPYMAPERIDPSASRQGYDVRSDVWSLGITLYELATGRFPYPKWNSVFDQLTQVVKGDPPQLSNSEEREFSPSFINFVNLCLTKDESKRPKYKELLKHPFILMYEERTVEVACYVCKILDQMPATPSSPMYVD
Chain of Serine/threonine-protein kinase Chk1 (Homo sapiens) (O14757 whole entry): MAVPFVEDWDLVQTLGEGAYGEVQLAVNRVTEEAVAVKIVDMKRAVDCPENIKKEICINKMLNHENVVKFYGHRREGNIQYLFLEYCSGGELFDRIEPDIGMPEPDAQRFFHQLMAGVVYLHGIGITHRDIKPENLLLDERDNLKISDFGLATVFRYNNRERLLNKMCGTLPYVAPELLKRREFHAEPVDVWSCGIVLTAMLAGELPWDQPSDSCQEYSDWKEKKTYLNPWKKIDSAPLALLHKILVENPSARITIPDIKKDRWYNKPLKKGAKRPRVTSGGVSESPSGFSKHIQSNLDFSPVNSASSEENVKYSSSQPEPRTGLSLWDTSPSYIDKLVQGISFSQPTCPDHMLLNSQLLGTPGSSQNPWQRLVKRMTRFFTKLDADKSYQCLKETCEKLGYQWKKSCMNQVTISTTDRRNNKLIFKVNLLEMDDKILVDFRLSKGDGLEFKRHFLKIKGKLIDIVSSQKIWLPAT
Chain of MAP kinase-activated protein kinase 2 (Mus musculus, UniProt P49138) (P49138 whole entry): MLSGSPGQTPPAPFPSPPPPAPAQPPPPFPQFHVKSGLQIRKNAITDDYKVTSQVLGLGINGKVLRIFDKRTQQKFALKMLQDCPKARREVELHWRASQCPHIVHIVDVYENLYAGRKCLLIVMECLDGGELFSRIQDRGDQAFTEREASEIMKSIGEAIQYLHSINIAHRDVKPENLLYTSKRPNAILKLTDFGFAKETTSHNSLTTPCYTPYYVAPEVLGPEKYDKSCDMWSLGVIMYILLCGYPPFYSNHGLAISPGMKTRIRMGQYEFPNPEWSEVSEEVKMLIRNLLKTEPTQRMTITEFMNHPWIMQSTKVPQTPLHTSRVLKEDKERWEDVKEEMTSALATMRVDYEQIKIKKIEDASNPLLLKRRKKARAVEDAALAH
Chain of Ribosomal protein S6 kinase beta-1 (Homo sapiens) (P23443 whole entry, looked up): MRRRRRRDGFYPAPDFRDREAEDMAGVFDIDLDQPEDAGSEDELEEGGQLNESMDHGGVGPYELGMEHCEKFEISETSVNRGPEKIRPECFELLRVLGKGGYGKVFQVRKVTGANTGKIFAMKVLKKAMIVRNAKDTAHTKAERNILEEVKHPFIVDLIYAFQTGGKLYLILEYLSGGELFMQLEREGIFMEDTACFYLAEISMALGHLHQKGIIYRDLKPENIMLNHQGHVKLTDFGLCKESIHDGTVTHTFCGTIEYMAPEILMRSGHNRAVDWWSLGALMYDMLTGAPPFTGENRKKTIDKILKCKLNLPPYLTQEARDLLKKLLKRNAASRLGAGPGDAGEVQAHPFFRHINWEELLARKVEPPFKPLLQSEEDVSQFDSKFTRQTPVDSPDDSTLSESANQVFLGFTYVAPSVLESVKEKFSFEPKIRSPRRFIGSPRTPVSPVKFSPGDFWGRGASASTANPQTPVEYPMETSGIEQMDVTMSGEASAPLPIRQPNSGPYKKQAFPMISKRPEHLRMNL

- IC50 [1]: 14 µM
- solubility [2]: 75 µg/mL (≈ 200 µM)
- microsomal CLint [3]: < 10 µL/min/mg
- IC50 [4]: 23 µM
- IC50 [5]: 300 µM
- Papp A→B [6]: 7.1 ×10⁻⁶ cm/s
- IC50 [7]: 11 µM
- IC50 [8]: 1.3 µM
- IC50 [9]: 3 µM
- Ki [10]: 6 µM
- IC50 [11]: 0.055 µM
- IC50 [12]: > 100 µM
- IC50 [13]: 25 µM
- microsomal CLint [14]: 59 µL/min/mg
Compound: N[C@H]1CC[C@H](Nc2cc(Nc3ccc(F)c(Cl)c3)n3nccc3n2)CC1

Compound: CCOc1ccc(Nc2c(C)c(N[C@H]3CCCNC3)nc3ccnn23)cc1
- inhibition [15]: 62%
- Drug uptake (Serum [16]): Dose-dependent effect
- inhibition [17]: 7%
- solubility [2]: 70 µg/mL (≈ 191 µM)
- concentration (Serum [18]): 10 µM
- inhibition [19]: -1%
- concentration (Serum [20]): 2 µM
- Activity (Mus musculus [21]): 14%
- concentration (Serum [22]): 8 µM
- microsomal CLint [3]: < 10 µL/min/mg
- Papp A→B [6]: 28.3 ×10⁻⁶ cm/s
- fraction unbound [23]: 0.114
- inhibition [24]: 23%
- inhibition [25]: 3%
- inhibition [26]: 4%
- inhibition [27]: > 75%
- inhibition [28]: 3%
- bioavailability [29]: 66%
- IC50 [30]: 5 µM
- clearance [31]: 68.3 mL/min/kg
- inhibition [32]: 7%
- Activity (Mus musculus [33]): Dose-dependent effect
- inhibition [34]: > 75%
- half-life [35]: 2.2 h
- AUC(0-t) at 24 h [36]: 0.438 µM·h
- inhibition [37]: 5%
- inhibition [38]: 30%
- inhibition (Rattus norvegicus [39]): 41%
- inhibition [40]: 15%
- inhibition [41]: -9%
- inhibition (Homo sapiens): 0%
- inhibition [42]: 12%
- inhibition [43]: 0%
- inhibition [44]: > 75%
- inhibition [45]: -5%
- IC50 (THP-1): 74 µM
- inhibition [46]: 19%
- inhibition (Rattus norvegicus [47]): 35%
- inhibition [48]: 24%
- concentration (Serum [49]): 5 µM
- microsomal CLint [14]: 11 µL/min/mg
- inhibition [50]: 9%
- inhibition [51]: 26%
- inhibition [52]: -2%
